Experimental data: ChEMBL document CHEMBL1137289, “Structure-activity relationships of novel antibacterial translation inhibitors: 3,5-diamino-piperidinyl triazines” (Bioorg Med Chem Lett, 2006)
In brackets after ≈: the same amount, converted by molar mass.

What was measured:
Escherichia coli [1] = experiment: Inhibition of protein synthesis in Escherichia coli S30 extracts by coupled transcription-translation assay; type: functional; details: Escherichia coli
Escherichia coli [2] = experiment: Antibacterial activity against wild type impermeable Escherichia coli LMG194; type: functional
Escherichia coli [3] = experiment: microbe, parasite or virus in culture; details: ATCC 25922
Description: Antibacterial activity against Escherichia coli ATCC 25922

Staphylococcus aureus = experiment: microbe, parasite or virus in culture; details: ATCC 25923
Description: Antibacterial activity against Staphylococcus aureus ATCC 25923

Escherichia coli [4] = experiment: Antibacterial activity against isogenic permeable mutant Escherichia coli LMG194; type: functional
Pseudomonas aeruginosa = experiment: Antibacterial activity against Pseudomonas aeruginosa ATCC 27853; type: functional
[5] = Cytotoxicity against CEM T cells after 72 hrs by proliferation assay; type: cell-based, CCRF-CEM; details: human, CCRF-CEM (CEM) T cells

Row | SMILES | IC50 (Escherichia coli [1]) | MIC (Escherichia coli [3]) | MIC (Staphylococcus aureus) | further results
1 | Cc1cc(C)cc(Nc2nc(N3C[C@H](N)C[C@H](N)C3)nc(N3C[C@H](N)C[C@H](N)C3)n2)c1 | 13 µM | 64 µg/mL (≈ 150 µM) | 32 µg/mL (≈ 75 µM) | MIC (Escherichia coli [2]): > 64 µg/mL
2 | COc1cc(Nc2nc(N3C[C@H](N)C[C@H](N)C3)nc(N3C[C@H](N)C[C@H](N)C3)n2)ccc1NC(=O)c1ccc(Cl)cc1O | 8 µM | 4 µg/mL (≈ 6.69 µM) | – | –
3 | N[C@@H]1C[C@H](N)CN(c2nc(N3CCNCC3)nc(N3C[C@H](N)C[C@H](N)C3)n2)C1 | 23 µM | – | – | –
4 | N[C@@H]1C[C@H](N)CN(c2nc(NC3CCCCC3)nc(N3C[C@H](N)C[C@H](N)C3)n2)C1 | 63 µM | – | – | –
5 | N[C@@H]1C[C@H](N)CN(c2nc(Nc3cccc(C(F)(F)F)c3)nc(N3C[C@H](N)C[C@H](N)C3)n2)C1 | 5 µM | 32 µg/mL (≈ 68.6 µM) | 16 µg/mL (≈ 34.3 µM) | MIC (Escherichia coli [2]): 32 µg/mL (≈ 68.6 µM); MIC (Escherichia coli [4]): 4 µg/mL (≈ 8.57 µM)
6 | CCN(CC)c1nc(N2C[C@H](N)C[C@H](N)C2)nc(N2C[C@H](N)C[C@H](N)C2)n1 | 180 µM | – | – | –
7 | N[C@@H]1C[C@H](N)CN(c2nc(Nc3ccc(C(=O)N4CCc5cc(Br)ccc54)c(O)c3)nc(N3C[C@H](N)C[C@H](N)C3)n2)C1 | 9 µM | 2 µg/mL (≈ 3.13 µM) | – | –
8 | N[C@@H]1C[C@H](N)CN(c2nc(Nc3ccc4c(c3)CCC4)nc(N3C[C@H](N)C[C@H](N)C3)n2)C1 | 15 µM | > 64 µg/mL | 32 µg/mL (≈ 73 µM) | MIC (Escherichia coli [2]): 64 µg/mL (≈ 146 µM); MIC (Escherichia coli [4]): 8 µg/mL (≈ 18.2 µM)
9 | N[C@@H]1C[C@H](N)CN(c2nc(Nc3ccc4[nH]cnc4c3)nc(N3C[C@H](N)C[C@H](N)C3)n2)C1 | 14 µM | 64 µg/mL (≈ 146 µM) | – | –
10 | COc1cccc(Nc2nc(N3C[C@H](N)C[C@H](N)C3)nc(N3C[C@H](N)C[C@H](N)C3)n2)c1NC(=O)c1ccc(Cl)cc1O | 30 µM | > 64 µg/mL | – | –
11 | N[C@@H]1C[C@H](N)CN(c2nc(Nc3ccc(C(=O)CC(=O)Nc4cccc(Br)c4)cc3)nc(N3C[C@H](N)C[C@H](N)C3)n2)C1 | 5 µM | 2 µg/mL (≈ 3.13 µM) | 16 µg/mL (≈ 25.1 µM) | MIC (Pseudomonas aeruginosa): ≤ 1 µg/mL; CC50 at 72 h [5]: 124 µM
12 | N[C@@H]1C[C@H](N)CN(c2nc(NC3CCNC3)nc(N3C[C@H](N)C[C@H](N)C3)n2)C1 (stereo partly specified) | 36 µM | – | – | –
13 | N[C@@H]1C[C@H](N)CN(c2nc(Nc3ccc(C(=O)CC(=O)Nc4ccc(-c5ccccc5)cc4)cc3)nc(N3C[C@H](N)C[C@H](N)C3)n2)C1 | 6 µM | 4 µg/mL (≈ 6.29 µM) | 16 µg/mL (≈ 25.2 µM) | MIC (Pseudomonas aeruginosa): ≤ 1 µg/mL; CC50 at 72 h [5]: 24 µM
14 | N[C@@H]1C[C@H](N)CN(c2nc(N3C[C@H](N)C[C@H](N)C3)nc(N3CCc4cc(Br)ccc43)n2)C1 | 5 µM | 16 µg/mL (≈ 31.8 µM) | – | –
15 | N[C@@H]1C[C@H](N)CN(c2nc(Nc3ccc(Cl)c(Cl)c3)nc(N3C[C@H](N)C[C@H](N)C3)n2)C1 | 7 µM | 32 µg/mL (≈ 68.5 µM) | – | –
16 | Nc1nc(N2C[C@H](N)C[C@H](N)C2)nc(N2C[C@H](N)C[C@H](N)C2)n1 | 92 µM | – | – | –
17 | Nc1ccc(Nc2nc(N3C[C@H](N)C[C@H](N)C3)nc(N3C[C@H](N)C[C@H](N)C3)n2)cc1 | 8 µM | – | – | –
18 | NNc1nc(N2C[C@H](N)C[C@H](N)C2)nc(N2C[C@H](N)C[C@H](N)C2)n1 | 170 µM | – | – | –
19 | COc1ccc(Nc2nc(N3C[C@H](N)C[C@H](N)C3)nc(N3C[C@H](N)C[C@H](N)C3)n2)cc1 | 14 µM | > 64 µg/mL | > 64 µg/mL | MIC (Escherichia coli [2]): > 64 µg/mL
20 | N[C@@H]1C[C@H](N)CN(c2nc(Cl)nc(N3C[C@H](N)C[C@H](N)C3)n2)C1 | 42 µM | – | – | –
21 | N[C@@H]1C[C@H](N)CN(c2nc(Nc3ccncc3)nc(N3C[C@H](N)C[C@H](N)C3)n2)C1 | 32 µM | – | – | –
22 | N[C@@H]1C[C@H](N)CN(c2nc(Nc3ccon3)nc(N3C[C@H](N)C[C@H](N)C3)n2)C1 | 9 µM | – | – | –
23 | N[C@@H]1C[C@H](N)CN(c2nc(Nc3ccc(NC(=O)c4cccc(O)c4O)cc3)nc(N3C[C@H](N)C[C@H](N)C3)n2)C1 | 5 µM | 8 µg/mL (≈ 14.6 µM) | – | –
24 | N[C@@H]1C[C@H](N)CN(c2nc(Nc3ccccc3)nc(N3C[C@H](N)C[C@H](N)C3)n2)C1 | 7 µM | > 64 µg/mL | > 64 µg/mL | MIC (Escherichia coli [2]): > 64 µg/mL
25 | N[C@@H]1C[C@H](N)CN(c2nc(Nc3ccc(NC(=O)c4ccc5ccccc5c4O)cc3)nc(N3C[C@H](N)C[C@H](N)C3)n2)C1 | 10 µM | 1 µg/mL (≈ 1.71 µM) | 2 µg/mL (≈ 3.43 µM) | MIC (Pseudomonas aeruginosa): 1 µg/mL (≈ 1.71 µM); CC50 at 72 h [5]: 140 µM
